# According to patent US10765094B2, “Inflammation reporter system” (priority 2014, dated 2020):
# How the values were obtained:
# [1] = system: mouse-derived macrophage-like cell line RAW264; assay: Reporter activity in RAW264 cells transiently transfected with the reporter gene vector, luciferase luminescence measured with a luminometer; format: cell-based; details: LPS 2 μg/mL
# Experimental: The gene vector constructed as above was transiently introduced into mouse-derived macrophage-like cell line RAW264.
# For transfection, Effectene (Qiagen) was used, and the cells at 24 hours after transfection were collected and provided for experiments. To a culture of transiently expressing cells, LPS (Sigma #L2654) was added at a concentration of 2 μg/mL, and the amount of luciferase luminescence at 48 hours after addition was determined by being measured with a luminometer. For use as a control, an LPS-free group was provided. In addition, as a conventional reporter system detecting only IL-1β gene expression, a vector was prepared to have GL4 ligated downstream of a promoter for the IL-1β gene, and cells transfected with this vector were provided for the same test.
# [2] = system: inflammation reporter mouse; assay: Visualization of inflammatory reactions in the inflammation reporter transgenic mouse, bioimaging analyzer (IVIS); format: in vivo; details: LPS 3 mg/kg wt intraperitoneally; 0, 4 and 24 hours after administration
# Experimental: The excised and purified gene vector was injected into 200 fertilized eggs at the pronucleus stage which had been taken from mice of the C57BL/6 strain, thereby obtaining 71 pups. The genomic DNA extracted from the body tissue of each pup was used for genotype analysis to thereby obtain 18 founder mice having the gene vector inserted into their genome. Four founder mice were each crossed with a wild-type mouse of the C57BL/6 strain to produce F1 generation mice, which were then examined for reporter molecule reaction when intraperitoneally administered with LPS (Sigma #L2654).
# The inflammation reporter mouse thus established was intraperitoneally administered with LPS (Sigma #L2654) at a concentration of 3 mg/kg wt.
Substance,"reporter signals (amount of luciferase luminescence) upon LPS stimulation ([1]; 48 hours after addition, vs LPS-free group, cells transfected with vector of the present invention or of conventional type)",luciferase luminescence signals in the body [2],"improvement in sensitivity compared to the vector of conventional type ([1]; 48 hours, conventional vector = GL4 downstream of IL-1β gene promoter) [fold]"
lipopolysaccharide [LPS],significant increase in reporter signals,luminescence signals from luciferase were able to be captured from all tissues of the body,–
"vector of the present invention: gene vector: IL-1β promoter/TK promoter, GL4 luciferase, IL-1β partial sequence (17-216 aa), CL1-PEST, SV40 polyA",–,–,≥ 2
